Assay results reported in US4668677A, “4-phenylphthalazine derivatives, their preparation and their use as pharmaceuticals” (Mitsubishi Chemical Industries Limited, priority 1984, dated 1987).

Key:
in vivo = details: rat, po, rats
[1] = system: PGI2-like substance in vessel walls; experiment: Influence on production of PGI2-like substance in vessel walls (ADP aggregation with carotid artery ring); assay type: in vivo, rat (male Wistar-ST strain); details: 1 hour, 10 μM ADP
Procedure: Male Wistar-ST strain rats with an average weight of about 250 g were used as experimental animals. After fasted for 18 hours, 6.3 ml of blood sample were obtained from corotid artery and immediately thereafter 0.7 ml of an anticoagulant (3.8% sodium citrate) was added and the sample was centrifuged at 200×g over 15 minutes to take platelet-rich plasma (PRP). The same procedures as above were carried out, using 5 to 6 rats, whereby 5-6 ml as normal PRP were stored and employed.
Reference aggregation values were determined by pouring 1 ml each of stored PRP into plastic test tubes, incubating them at 22° C. for 10 minutes and then determining aggregation rate. As an aggregation inducing agent, one employed 10 μM ADP (available from Sigma Co., Inc.)
A suspension of the compound of this invention or aspirin in a 1% aqueous solution of tragacanth was orally given to animals. After 1 hour, 5 mg of carotid artery were cut out in a ring shape and placed into a plastic test tube together with 1 ml of stored PRP. After incubated at 22° C. for 10 minutes, aggregation rate was determined.
Also, non-medicated groups were similarly treated and aggregation rate was determined.
Determination of blood platelet aggregation rate was made by means of an aggregometer.

femoral artery [2] = experiment: Action on blood pressure in femoral artery; assay type: in vivo, rabbit (male New Zealand White)
Procedure: (§1) Male New Zealand White rabbits (body weight of 2.8 Kg to 3.5 Kg) were used and anesthetized with pentobarbital sodium. Blood flow volumes in the carotid artery and femoral artery were measured and recorded via a non-blood observing type of a probe for measuring blood flow volume. Also, blood pressure in femoral artery was simultaneously measured and recorded with measurement of blood flow.
(§2) The compound of this invention was dissolved in an aqueous solution containing 1% tartaric acid and 1% dimethylacetamide, while papaverine hydrochloride dissolved in 0.9% physiological saline. These test compounds were intravenously given through a residual polyethylene tube within femoral vein.

mice = experiment: Anti-thrombotic activity: arachidonic acid-induced mortality in mice; assay type: in vivo, mouse (male ICR-JCL strain); details: for Survival time of dead mice: arachidonic acid 100 mg/Kg i.v.; for Mortality: arachidonic acid 100 mg/Kg i.v. after 1 hour
Procedure: (§3) Male ICR-JCL strain mice with an average body weight of about 25 g and male New Zealand White rabbits with an average body weight of about 3 Kg were used.
Where mice were used as experimental animals, a suspension of the test compound indicated in Table 3 in a 1% tragacanth aqueous solution was orally administered to animals at 20 ml/Kg. One hour after the administration, an arachidonic acid (PL-biochemical Co., Inc.) solution dissolved in a 0.1M sodium carbonate aqueous solution was intravenously given at 100 mg/Kg. Evaluation of activity was effected with the time from the administration of arachidonic acid up to the death of animals as well as mortality.

rabbits = experiment: Anti-thrombotic activity: arachidonic acid-induced mortality in rabbits; assay type: in vivo, rabbit (male New Zealand White)
Procedure: as §3
Where rabbits were used as experimental animals, a suspension of the test compound in a 1% tragacanth aqueous solution was orally administered to animals at 5 ml/Kg. Two hours after the administration, an arachidonic acid solution dissolved in a 0.1M potassium carbonate solution was injected into pinna vein at 1.4 mg/Kg.
Evaluation of activity was effected with mortality at the time when arachidonic acid given. If survived at the first administration of arachidonic acid, arachidonic acid was administered after 6 hours, 24 hours, 48 hours and 72 hours from the administration of the test compound, respectively, and mortality was determined in respective cases.

femoral artery [3] = experiment: Action on blood flow volume in femoral artery; assay type: in vivo, rabbit (male New Zealand White)
Procedure: as §1, §2

carotid artery = experiment: Action on blood flow volume in carotid artery; assay type: in vivo, rabbit (male New Zealand White)
Procedure: as §1, §2

CCC(CC)Nc1nnc(-c2ccccc2)c2ccccc12 [Compound 2, 1-(1-ethylpropylamino)-4-phenylphthalazine]
LD50 (in vivo): > 8000 mg/kg
Aggregation rate with ADP when carotid artery ring added ([1]; 3 mg/Kg oral): 0.0%
Aggregation rate with ADP when carotid artery ring added ([1]; 10 mg/Kg oral): 7.7%
Aggregation rate with ADP when carotid artery ring added ([1]; 30 mg/Kg oral): 1.3%
Aggregation rate with ADP when carotid artery ring added ([1]; 100 mg/Kg oral): 23.3%
Blood pressure in femoral artery, A: Before administration (femoral artery [2]; 0.01 mg/kg i.v.): 93.8 mmHg
Blood pressure in femoral artery, B: After administration (femoral artery [2]; 0.01 mg/kg i.v.): 91.3 mmHg
Blood pressure in femoral artery, E: Lowering degree (femoral artery [2]; 0.01 mg/kg i.v.): 2.5 mmHg
Blood pressure in femoral artery, F: Lowering rate (femoral artery [2]; 0.01 mg/kg i.v.): 2.7%
Blood pressure in femoral artery, A: Before administration (femoral artery [2]; 0.05 mg/kg i.v.): 90.8 mmHg
Blood pressure in femoral artery, B: After administration (femoral artery [2]; 0.05 mg/kg i.v.): 83.7 mmHg
Blood pressure in femoral artery, E: Lowering degree (femoral artery [2]; 0.05 mg/kg i.v.): 7.1 mmHg
Blood pressure in femoral artery, F: Lowering rate (femoral artery [2]; 0.05 mg/kg i.v.): 8.07%
Blood pressure in femoral artery, A: Before administration (femoral artery [2]; 0.1 mg/kg i.v.): 88.8 mmHg
Blood pressure in femoral artery, B: After administration (femoral artery [2]; 0.1 mg/kg i.v.): 78.1 mmHg
Blood pressure in femoral artery, E: Lowering degree (femoral artery [2]; 0.1 mg/kg i.v.): 10.6 mmHg
Blood pressure in femoral artery, F: Lowering rate (femoral artery [2]; 0.1 mg/kg i.v.): 11.6%
Blood pressure in femoral artery, A: Before administration (femoral artery [2]; 0.5 mg/kg i.v.): 87.5 mmHg
Blood pressure in femoral artery, B: After administration (femoral artery [2]; 0.5 mg/kg i.v.): 69.2 mmHg
Blood pressure in femoral artery, E: Lowering degree (femoral artery [2]; 0.5 mg/kg i.v.): 18.3 mmHg
Blood pressure in femoral artery, F: Lowering rate (femoral artery [2]; 0.5 mg/kg i.v.): 21.2%
Survival time of dead mice (mice; 10 mg/Kg oral): 127 ± 14 s
Mortality (mice; 10 mg/Kg oral): 86%
Survival time of dead mice (mice; 30 mg/Kg oral): 127.5 ± 14 s
Mortality (mice; 30 mg/Kg oral): 86%
Mortality (mice; 100 mg/Kg oral): 0%
Mortality (mice; 300 mg/Kg oral): 0%
Mortality (number of rabbits) (rabbits; 3 mg/Kg oral, 2 hrs. after administration, of 4 rabbits): 2
Mortality (number of rabbits) (rabbits; 3 mg/Kg oral, 6 hrs. after administration, of 4 rabbits): 1
Mortality (number of rabbits) (rabbits; 3 mg/Kg oral, 24 hrs. after administration, of 4 rabbits): 1
Mortality (number of rabbits) (rabbits; 10 mg/Kg oral, 6 hrs. after administration, of 4 rabbits): 4
Mortality (number of rabbits) (rabbits; 30 mg/Kg oral, 24 hrs. after administration, of 8 (Compound 1) or 4 rabbits): 2
Mortality (number of rabbits) (rabbits; 30 mg/Kg oral, 48 hrs. after administration, of 8 (Compound 1) or 4 rabbits): 2
Blood flow volume in femoral artery, A: Before administration (femoral artery [3]; 0.01 mg/Kg i.v.): 20.9 mL/min
Blood flow volume in femoral artery, B: After administration (femoral artery [3]; 0.01 mg/Kg i.v.): 26.5 mL/min
Blood flow volume in femoral artery, C: Increase degree (femoral artery [3]; 0.01 mg/kg i.v.): 5.6 mL/min
Blood flow volume in femoral artery, D: Increase rate (femoral artery [3]; 0.01 mg/kg i.v.): 28.5%
Blood flow volume in femoral artery, A: Before administration (femoral artery [3]; 0.05 mg/Kg i.v.): 18.8 mL/min
Blood flow volume in femoral artery, B: After administration (femoral artery [3]; 0.05 mg/Kg i.v.): 20.3 mL/min
Blood flow volume in femoral artery, C: Increase degree (femoral artery [3]; 0.05 mg/kg i.v.): 3.3 mL/min
Blood flow volume in femoral artery, D: Increase rate (femoral artery [3]; 0.05 mg/kg i.v.): 13.4%
Blood flow volume in femoral artery, A: Before administration (femoral artery [3]; 0.1 mg/Kg i.v.): 15.9 mL/min
Blood flow volume in femoral artery, B: After administration (femoral artery [3]; 0.1 mg/Kg i.v.): 12.5 mL/min
Blood flow volume in femoral artery, C: Increase degree (femoral artery [3]; 0.1 mg/kg i.v.): 3.4 mL/min
Blood flow volume in femoral artery, D: Increase rate (femoral artery [3]; 0.1 mg/kg i.v.): 23.4%
Blood flow volume in femoral artery, A: Before administration (femoral artery [3]; 0.5 mg/Kg i.v.): 19.5 mL/min
Blood flow volume in femoral artery, B: After administration (femoral artery [3]; 0.5 mg/Kg i.v.): 13.8 mL/min
Blood flow volume in femoral artery, C: Increase degree (femoral artery [3]; 0.5 mg/kg i.v.): 5.7 mL/min
Blood flow volume in femoral artery, D: Increase rate (femoral artery [3]; 0.5 mg/kg i.v.): 36.7%
Blood flow volume in carotid artery, A: Before administration (carotid artery; 0.01 mg/Kg i.v.): 15.6 mL/min
Blood flow volume in carotid artery, B: After administration (carotid artery; 0.01 mg/Kg i.v.): 19.4 mL/min
Blood flow volume in carotid artery, C: Increase degree (carotid artery; 0.01 mg/Kg i.v.): 3.9 mL/min
Blood flow volume in carotid artery, D: Increase rate (carotid artery; 0.01 mg/Kg i.v.): 24.9%
Blood flow volume in carotid artery, A: Before administration (carotid artery; 0.05 mg/Kg i.v.): 13.9 mL/min
Blood flow volume in carotid artery, B: After administration (carotid artery; 0.05 mg/Kg i.v.): 17.7 mL/min
Blood flow volume in carotid artery, C: Increase degree (carotid artery; 0.05 mg/Kg i.v.): 3.8 mL/min
Blood flow volume in carotid artery, D: Increase rate (carotid artery; 0.05 mg/Kg i.v.): 24.8%
Blood flow volume in carotid artery, A: Before administration (carotid artery; 0.1 mg/Kg i.v.): 14.5 mL/min
Blood flow volume in carotid artery, B: After administration (carotid artery; 0.1 mg/Kg i.v.): 22.4 mL/min
Blood flow volume in carotid artery, C: Increase degree (carotid artery; 0.1 mg/Kg i.v.): 7.9 mL/min
Blood flow volume in carotid artery, D: Increase rate (carotid artery; 0.1 mg/Kg i.v.): 54.3%
Blood flow volume in carotid artery, A: Before administration (carotid artery; 0.5 mg/Kg i.v.): 16.7 mL/min
Blood flow volume in carotid artery, B: After administration (carotid artery; 0.5 mg/Kg i.v.): 32.1 mL/min
Blood flow volume in carotid artery, C: Increase degree (carotid artery; 0.5 mg/Kg i.v.): 15.4 mL/min
Blood flow volume in carotid artery, D: Increase rate (carotid artery; 0.5 mg/Kg i.v.): 96.0%
